Source: patent publication US12329722B2, “Finished pharmaceutical form with individual medicine dosing capability (embodiments) and methods of its production and use” (PSIMOS, INC., priority 2016, dated 2025)

What was measured:
Assay type in all cases: physicochemical
[1] = solubility in water/alcohol solutions; details: water/alcohol solutions of the abovementioned concentrations
[2] = desorption of applied medicine from porous media to potable water; details: 50 ml of potable water
[3] = quantity of medicine that can be applied on unit area of porous media with a jet printer; details: fiberglass membrane made by Algstrem
Protocol: Using a jet printer with rechargeable cartridges the solution was applied on a 236.5 cm^2 specimen of media made from cellulose filtering material (size 21.5*1 1 cm^2, format Letter) with different printing qualities in dpi and different area filling densities. […] Following that the quantity of acetylsalicylic acid applied per unit area was analyzed depending on software controlled printing quality (in dpi). Using the specially plotted graduation curve the required printing densities in dpi were selected for applying 130 mg per 0.25 cm^2, or 520 mg/cm^2. The specimen was dried in a hot air flow for guaranteed removal of the water/alcohol solvent and packaged in a polymer container protecting the specimen from direct sunlight. Then the specimen was removed from the container and placed in a glass with water.
A similar procedure was conducted for d, 1-2-(4-isobutylphenyl)-propionic acid (the active pharmaceutical substance of the Ibuprofen medicine) and a fiberglass membrane made by Algstrem, USA, used in immunology.

[4] = stability of medicine during application with a piezoelectric apparatus (chromatography); details: heat from piezoelectric apparatus above 40 degrees Celsius
Text: Initially, at S110, a head 216 of a printing device 208 is dismantled. The head 216 of the printing device 208 may include a plurality of head nozzles 218 operative to dispense a liquid therefrom. The printing device 208 may be a piezoelectric apparatus, or any other suitable apparatus. The printing device 208 may accurately (e.g., within 5% of a nominal range) output a range of drop sizes (e.g., 2-80 picolitres) at a relatively high dispensing frequency (e.g., 1000-3000 drops per second). The printing device 208 may operate based on an inverse piezoelectric effect, whereby a piezoelectric element is deformed under the influence of an electric field. […] In one or more embodiments, the printing device 208 may include a thermo sensor 230 to control the temperature of the head 216 to avoid heating the medicine to a temperature that results in decomposition of the medicine. […] It is noted that the ranges of acceptable temperatures may be analyzed, as cooling may affect viscosity of the medicine. […] The inventors note that, per their research on the use of vitamin C in a piezoelectric apparatus, during application of the medicine to the porous media, heat resulting from the use of the piezoelectric apparatus occurred above 40 degrees Celsius, as vitamin C was destroyed and its presence was not detected during chromatography. […]

Structure (SMILES): CC(=O)Oc1ccccc1C(=O)O [acetylsalicylic acid]
- solubility in water/alcohol solutions [1]: ~100%

Structure (SMILES): CC(C)Cc1ccc(C(C)C(=O)O)cc1 (centres unmarked) [d, 1-2-(4-isobutylphenyl)-propionic acid]
- quantity desorbed to potable water ([2]; 1 cm^2 fiberglass membrane (Algstrem), 300±2 mg applied): 246±2
- share of applied quantity desorbed to potable water ([2]; 1 cm^2 fiberglass membrane): 82%
- possible quantity that can be applied on 1 cm^2 (unit area) [3]: 300 ± 2 mg

Structure (SMILES): O=C1O[C@H]([C@@H](O)CO)C(O)=C1O [vitamin C]
- stability during application to porous media with piezoelectric apparatus [4]: destroyed
